Consider 1 sequence from PMC7600788, “Sequence Permutation Generates Peptides with Different Antimicrobial and Antibiofilm Activities” (Pharmaceuticals, 2020).

For one data set, the system named is S. aureus Mu50. In kind it is cell-based, Staphylococcus aureus. Conditions: Mu50. The gist of the method:
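Broth microdilution: log-phase cultures diluted to OD600 ~0.001 were treated with two-fold peptide dilutions and incubated overnight at 37 °C, then read at 630 nm. MBC was the lowest concentration giving no growth when wells at or above MIC were plated.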

For data set [1], the system named is E. coli ATCC 25922. In kind it is cell-based, Escherichia coli. Conditions: ATCC 25922. The gist of the method:
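Broth microdilution with log-phase cultures diluted to OD600~0.001 and two-fold peptide dilutions, incubated overnight at 37 °C and read at 630 nm. MBC taken by plating clear wells at or above MIC. Physiological saline or human serum was present for the whole experiment.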

Data set [2] relates to monkey kidney Vero E6 cells. In kind it is cell-based. In a few lines: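 HaCaT cells and PMA-differentiated THP-1 macrophages (30 ng/mL PMA, 16 h) seeded at 3 × 10^4/well; Vero E6 cells grown in EMEM. Peptides applied at varying concentrations in serum-free medium for one hour. Viability read by MTS reduction (2 h, 37 °C), absorbance at 492 nm.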
For data set [3], the system named is E. coli ATCC 25922. Nature of the data set: Propidium iodide membrane permeation assay. In kind it is cell-based, Escherichia coli. Conditions: peptide 3.1 µM, read every 5 min for 2 h. The method, then: Although not general, cationic antimicrobial peptides frequently target bacterial membranes. A fluorescence-based assay was performed for the determination the membrane active nature of peptides. A rapid increase in the fluorescence was detected as a consequence of peptide treatment at 3.1 µM, indicating membrane damage (Figure 3).
The experiment was performed as previously described with minor modifications. Serially diluted 10× peptides (10 μL each well) were created in 96-well microtiter plates. Propidium iodide (2 μL) at a fixed concentration of 20 μM was added to each well followed by 88 μL of the S. aureus USA300 or E. coli ATCC 25922 culture (a final OD600 ~0.1 in PBS). The plate was incubated at 37 °C with continuous shaking at 100 rpm in a FLUOstar Omega (BMG LABTECH Inc, Cary, NC, USA) microplate reader. The fluorescence from the plate was read every 5 min for a total duration of 2 h with excitation and emission wavelengths of 584 and 620 nm, respectively. Data were analyzed using the MARS data analysis software provided by the manufacturer and representative plots were made using the GraphPad Prism software (version: 7.0).

Another data set concerns E. coli ML35p. Kind of data set: Simultaneous outer and inner membrane permeation (nitrocefin / ONPG). Format: cell-based, Escherichia coli. Conditions: 3.1 µM. From the text:
To confirm the mechanism of action, we also performed membrane permeation using a reporter strain of E. coli ML35p. This strain enabled simultaneous monitoring of membrane permeation of both the inner and outer membranes of Gram-negative bacterium E. coli. Both WW295 and WW298 were included in the experiment. […] This is indicated by the sharp development of absorbance at 490 nm for nitrocefin (panel A) and at 420 nm for ONPG (panel B).
The E. coli ML-35p strain was utilized to probe the permeation of both the outer membrane (OM) and inner membrane (IM). This strain was engineered to have two membrane reporters. Nitrocefin is used for detection of OM permeabilization. Nitrocefin is excluded from the periplasm. […] The chromogenic cleavage product was spectrophotometrically monitored at 490 nm. […] However, permeabilization of the IM helps ONPG to enter cytoplasm and get cleaved by cytoplasmic β-galactosidase into o-nitrophenol, which can be detected spectrophotometrically at 420 nm. […] Absorbances at both 490 and at 420 nm were monitored using FLUOstar Omega (BMG, Labtech, NC, USA) simultaneously. After shaking at 100 rpm, readings were taken every 2 min for a total of 40 min at 37 °C. Data were analyzed using the MARS data analysis software provided by the manufacturer and representative plots were made using the GraphPad Prism 7 software.

Another data set deals with K. pneumonia ATCC 13883. The settings on record: cited from earlier work. From the text: Table 2 Antibacterial activities of the WW peptides against various bacteria. | column: Minimal Inhibitory Concentration (MIC, μM) / KP ^a

No end group written: not given here. Where only a bound is given, the exact number is not on record here.

Turning to RKIWWWWL [WW295], the “Minimal Inhibitory Concentration (MIC), SA” value with S. aureus Mu50 came out at 12.5 µM. For the same sequence, in the data set on E. coli ATCC 25922 [1], the “MIC, +150 mM NaCl” value is 6.2 µM; the “MIC, +10% Human Serum” value was determined as 12.5 µM; the “MIC, TSB” value is recorded as 3.1 µM. Further, the “Vero Cells, concentration that caused 50% cell death (LC50)” value in data set [2] is over 100 µM. The “propidium iodide fluorescence buildup (membrane permeation)” value in the data set on E. coli ATCC 25922 [3] is “steady fluorescence buildup”. Besides, the “outer and inner membrane permeation (nitrocefin 490 nm, ONPG 420 nm)” value in the data set on E. coli ML35p is “entered both outer and inner membranes”. Besides, the “Minimal Inhibitory Concentration (MIC), KP” value in the data set with K. pneumonia ATCC 13883 was 3.1 to 6.2 µM.
